# Results as given in US7528138B2, “Pyrazolo[1,5-a]pyrimidines useful as inhibitors of protein kinases” (Vertex Pharmaceuticals Incorporated, priority 2004, dated 2009).
# Key:
# Format in all cases: biochemical
# Itk = target: T1, Itk (Homo sapiens, UniProt Q08881); experiment: ITK Inhibition Assay (Radiometric), radioactive-phosphate incorporation; settings: enzyme inhibition data (Ki), Table 11; radiometric or UV assay not stated
# T1 sequence (Q08881 1-620): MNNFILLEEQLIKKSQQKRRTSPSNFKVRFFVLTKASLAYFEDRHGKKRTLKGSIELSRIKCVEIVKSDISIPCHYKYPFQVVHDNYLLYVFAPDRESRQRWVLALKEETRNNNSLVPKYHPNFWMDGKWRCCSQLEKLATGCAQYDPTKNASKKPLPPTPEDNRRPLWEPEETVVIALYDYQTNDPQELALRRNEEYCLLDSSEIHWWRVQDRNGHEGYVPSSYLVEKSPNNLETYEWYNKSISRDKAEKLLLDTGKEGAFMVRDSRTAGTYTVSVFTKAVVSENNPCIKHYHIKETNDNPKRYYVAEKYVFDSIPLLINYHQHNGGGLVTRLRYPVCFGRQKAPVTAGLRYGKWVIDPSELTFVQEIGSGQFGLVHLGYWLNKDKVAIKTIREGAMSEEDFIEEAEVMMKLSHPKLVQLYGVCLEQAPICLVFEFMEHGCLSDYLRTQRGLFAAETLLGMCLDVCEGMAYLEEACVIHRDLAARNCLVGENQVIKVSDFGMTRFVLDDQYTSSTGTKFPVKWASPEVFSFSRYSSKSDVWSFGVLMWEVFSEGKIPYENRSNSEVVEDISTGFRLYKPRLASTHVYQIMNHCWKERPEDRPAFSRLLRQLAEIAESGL
# Method in brief: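 Radiometric 33P incorporation into SAM68 peptide (D332-443) with filter capture and scintillation counting; 10 min pre-incubation then 10 min reaction at 25° C. IC50 format: 30 nM Itk, 15 μM ATP, 2 μM peptide, HEPES pH 7.5. Ki(app) format: 50 nM Itk, 7.5 μM ATP, 3 μM peptide, MOPS pH 7.0.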
# JAK3 = target: T2, JAK3 (Homo sapiens, UniProt P52333); experiment: JAK3 Inhibition Assay, 33P incorporation; settings: enzyme inhibition data (Ki), Table 11
# T2 sequence (P52333 1-1124): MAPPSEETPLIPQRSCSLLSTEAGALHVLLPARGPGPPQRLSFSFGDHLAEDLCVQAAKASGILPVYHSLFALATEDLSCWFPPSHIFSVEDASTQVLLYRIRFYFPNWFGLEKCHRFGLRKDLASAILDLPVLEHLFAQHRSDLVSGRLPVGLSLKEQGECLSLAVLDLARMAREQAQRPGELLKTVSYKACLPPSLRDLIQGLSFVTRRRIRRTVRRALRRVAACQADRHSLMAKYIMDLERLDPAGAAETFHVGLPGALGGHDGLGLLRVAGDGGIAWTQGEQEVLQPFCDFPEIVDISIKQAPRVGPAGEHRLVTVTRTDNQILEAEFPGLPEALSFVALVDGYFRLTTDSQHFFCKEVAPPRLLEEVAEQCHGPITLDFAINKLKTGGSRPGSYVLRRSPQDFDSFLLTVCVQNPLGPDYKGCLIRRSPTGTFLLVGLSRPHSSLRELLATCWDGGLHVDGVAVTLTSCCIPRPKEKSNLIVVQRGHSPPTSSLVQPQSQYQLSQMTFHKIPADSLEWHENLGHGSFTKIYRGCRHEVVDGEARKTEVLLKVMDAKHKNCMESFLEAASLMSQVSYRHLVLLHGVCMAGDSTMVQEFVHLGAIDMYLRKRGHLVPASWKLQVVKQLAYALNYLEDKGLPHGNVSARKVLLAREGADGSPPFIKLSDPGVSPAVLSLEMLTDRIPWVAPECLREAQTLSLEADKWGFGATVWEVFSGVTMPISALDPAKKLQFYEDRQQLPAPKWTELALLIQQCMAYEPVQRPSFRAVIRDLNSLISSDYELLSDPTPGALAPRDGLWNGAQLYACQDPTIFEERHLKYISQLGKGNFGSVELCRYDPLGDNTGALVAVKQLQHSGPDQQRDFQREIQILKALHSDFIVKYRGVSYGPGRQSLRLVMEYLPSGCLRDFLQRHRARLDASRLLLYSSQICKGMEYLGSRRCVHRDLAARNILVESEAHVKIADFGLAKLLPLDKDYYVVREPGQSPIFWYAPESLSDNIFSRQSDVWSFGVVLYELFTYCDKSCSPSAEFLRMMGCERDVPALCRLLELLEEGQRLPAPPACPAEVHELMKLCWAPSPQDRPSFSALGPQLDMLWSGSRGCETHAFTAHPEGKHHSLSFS
# Method in brief: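 33P incorporation into 1 μM poly(Glu)4Tyr was counted after TCA stop and glass fiber filtration. The 20 min reaction ran at 25 °C with 1 nM JAK3 and 5 μM ATP (200 uCi/μmole). Buffer was 100 mM HEPES pH 7.4, 10 mM MgCl2, 25 mM NaCl, 1 mM DTT, 0.01% BSA.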
# c-Met = c-Met (Homo sapiens, UniProt P08581); experiment: c-Met Inhibition Assay, coupled enzyme system; settings: enzyme inhibition data (Ki), Table 11
# Method in brief: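 Pyruvate kinase/lactate dehydrogenase-coupled NADH assay in HEPES pH 7.5 with 80 nM c-Met, 200 μM ATP and 10 μM polyGluTyr at 30° C. Compound (0.006–12.5 μM final, 12-point) preincubated 10 min before ATP start; rates over 10 min gave Ki.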
# c-Met, sequence (P08581 25-1390): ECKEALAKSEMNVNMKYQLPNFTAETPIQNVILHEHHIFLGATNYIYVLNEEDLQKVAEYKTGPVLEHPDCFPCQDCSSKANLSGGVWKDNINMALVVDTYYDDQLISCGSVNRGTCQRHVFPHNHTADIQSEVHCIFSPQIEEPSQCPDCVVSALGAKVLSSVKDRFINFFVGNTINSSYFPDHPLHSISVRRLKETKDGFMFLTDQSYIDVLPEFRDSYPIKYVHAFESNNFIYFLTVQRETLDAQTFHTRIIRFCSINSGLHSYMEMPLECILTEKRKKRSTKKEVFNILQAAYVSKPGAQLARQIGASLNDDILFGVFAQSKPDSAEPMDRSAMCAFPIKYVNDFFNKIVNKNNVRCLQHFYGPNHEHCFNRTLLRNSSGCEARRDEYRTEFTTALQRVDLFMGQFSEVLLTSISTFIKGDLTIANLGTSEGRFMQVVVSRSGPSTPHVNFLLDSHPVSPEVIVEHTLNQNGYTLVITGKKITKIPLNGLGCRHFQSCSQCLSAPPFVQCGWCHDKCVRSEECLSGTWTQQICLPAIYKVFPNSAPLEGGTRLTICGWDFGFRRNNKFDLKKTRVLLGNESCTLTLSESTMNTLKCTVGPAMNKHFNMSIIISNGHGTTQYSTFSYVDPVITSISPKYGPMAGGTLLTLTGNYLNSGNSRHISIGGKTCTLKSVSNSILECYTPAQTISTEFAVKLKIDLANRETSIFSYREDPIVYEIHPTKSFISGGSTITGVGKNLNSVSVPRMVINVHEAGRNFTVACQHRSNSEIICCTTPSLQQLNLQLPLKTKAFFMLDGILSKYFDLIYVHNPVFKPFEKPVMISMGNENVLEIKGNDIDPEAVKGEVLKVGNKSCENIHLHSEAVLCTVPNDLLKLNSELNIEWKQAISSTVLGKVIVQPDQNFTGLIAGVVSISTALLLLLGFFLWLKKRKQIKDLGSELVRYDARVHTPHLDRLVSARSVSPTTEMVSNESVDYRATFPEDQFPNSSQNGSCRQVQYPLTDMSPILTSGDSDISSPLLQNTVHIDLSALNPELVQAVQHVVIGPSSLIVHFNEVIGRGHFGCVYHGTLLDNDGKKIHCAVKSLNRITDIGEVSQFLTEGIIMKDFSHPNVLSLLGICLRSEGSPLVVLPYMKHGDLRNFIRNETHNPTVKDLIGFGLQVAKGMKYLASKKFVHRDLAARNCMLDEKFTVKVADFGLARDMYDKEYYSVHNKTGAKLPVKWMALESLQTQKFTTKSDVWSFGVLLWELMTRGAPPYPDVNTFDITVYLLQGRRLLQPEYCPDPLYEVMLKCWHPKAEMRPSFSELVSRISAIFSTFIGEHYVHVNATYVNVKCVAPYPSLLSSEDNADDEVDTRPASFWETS
SMILES,Ki (Itk),Ki (JAK3),Ki (c-Met)
Nc1nn2cc(-c3ccccc3-c3ccccc3)cnc2c1-c1ccccn1 [Compound V-15],0.5 to 5 µM,> 5 µM,0.5 to 5 µM
Nc1nn2cc(-c3ccnc(N4CCN(CCOCCO)CC4)c3)cnc2c1-c1ccccn1 [Compound V-249],0.5 to 5 µM,0.5 to 5 µM,< 0.5 µM
CCOC(=O)c1c(N)nn2cc(-c3ccncn3)cnc12 [Compound V-27],0.5 to 5 µM,> 5 µM,0.5 to 5 µM
Nc1nn2cc(-c3ccccc3C(=O)O)cnc2c1-c1ccccn1 [Compound V-11],0.5 to 5 µM,> 5 µM,0.5 to 5 µM
Nc1nn2cc(-c3ccc(N4CCN(c5cnccn5)CC4)nc3)cnc2c1-c1ccccn1 [Compound V-162],0.5 to 5 µM,> 5 µM,0.5 to 5 µM
Nc1nn2cc(-c3ccc(N4CCN(CCO)CC4)nc3)cnc2c1-c1ccccn1 [Compound V-148],< 0.5 µM,0.5 to 5 µM,< 0.5 µM
Nc1nn2cc(CCCN3CCCC3)cnc2c1-c1ccccn1 [Compound V-311],0.5 to 5 µM,> 5 µM,< 0.5 µM
CN(CCc1ccccn1)c1ccc(-c2cnc3c(-c4ccccn4)c(N)nn3c2)cn1 [Compound V-168],0.5 to 5 µM,> 5 µM,0.5 to 5 µM
CCN(Cc1ccccc1)C(=O)c1c(N)nn2cc(-c3ccncn3)cnc12 [Compound V-42],0.5 to 5 µM,> 5 µM,0.5 to 5 µM
CN(C)CCN(C)C(=O)c1ccc(-c2cnc3c(Cc4ccccc4)c(N)nn3c2)nc1 [Compound V-211],0.5 to 5 µM,> 5 µM,0.5 to 5 µM
CCOC(=O)N1CCN(c2ccc(-c3cnc4c(-c5ccccn5)c(N)nn4c3)cn2)CC1 [Compound V-174],0.5 to 5 µM,> 5 µM,0.5 to 5 µM
Nc1nn2cc(-c3ccncn3)cnc2c1C(=O)N1CCC[C@H]1CN1CCCC1 [Compound V-34],0.5 to 5 µM,> 5 µM,0.5 to 5 µM
CCOC(=O)C1CCCN(c2ccc(-c3cnc4c(-c5ccccn5)c(N)nn4c3)cn2)C1 (stereo not drawn) [Compound V-167],0.5 to 5 µM,> 5 µM,< 0.5 µM
Cc1cnc2c(-c3cc(N4CCCC(C(N)=O)C4)ncn3)c(N)nn2c1 (stereo not drawn) [Compound V-309],0.5 to 5 µM,< 0.5 µM,< 0.5 µM
CN1CCC(N(C)C(=O)c2ccc(-c3cnc4c(-c5ccccn5)c(N)nn4c3)nc2)CC1 [Compound V-61],< 0.5 µM,0.5 to 5 µM,< 0.5 µM
Nc1nn2cc(-c3cccnc3N3CCOCC3)cnc2c1-c1ccccn1 [Compound V-257],0.5 to 5 µM,> 5 µM,0.5 to 5 µM
CCc1ccccc1-c1cnc2c(-c3ccccn3)c(N)nn2c1 [Compound V-9],0.5 to 5 µM,> 5 µM,0.5 to 5 µM
CCN(CCCCN)C(=O)c1cccc(-c2cnc3c(-c4ccccn4)c(N)nn3c2)n1 [Compound V-110],< 0.5 µM,0.5 to 5 µM,< 0.5 µM
CCCCN(CCN)C(=O)c1ccc(-c2cnc3c(-c4ccccn4)c(N)nn3c2)nc1 [Compound V-80],< 0.5 µM,> 5 µM,< 0.5 µM
CCN(CC)CCN(C)CCCc1cnc2c(-c3ccccn3)c(N)nn2c1 [Compound V-321],0.5 to 5 µM,> 5 µM,0.5 to 5 µM

SMILES,Ki (Itk),Ki (JAK3),Ki (c-Met)
Cc1cnc2c(-c3cc(N4CCCC(O)C4)ncn3)c(N)nn2c1 (stereo not drawn) [Compound V-342],0.5 to 5 µM,0.5 to 5 µM,< 0.5 µM
Nc1nn2cc(-c3cccnc3N3CCCCC3)cnc2c1-c1ccccn1 [Compound V-259],0.5 to 5 µM,> 5 µM,0.5 to 5 µM
CN(CC1OCCO1)C(=O)c1ccc(-c2cnc3c(-c4ccccn4)c(N)nn3c2)nc1 [Compound V-95],< 0.5 µM,0.5 to 5 µM,< 0.5 µM
CCC(CO)Nc1cc(-c2c(N)nn3cc(C)cnc23)ncn1 (stereo not drawn) [Compound V-288],< 0.5 µM,0.5 to 5 µM,< 0.5 µM
Nc1nn2cc(NC(=O)c3ccccc3)cnc2c1-c1ccccn1 [Compound V-235],0.5 to 5 µM,> 5 µM,0.5 to 5 µM
CCOC(=O)c1c(N)nn2cc(-c3ccccn3)cnc12 [Compound V-25],0.5 to 5 µM,> 5 µM,0.5 to 5 µM
Cc1cnc2c(-c3cc(N4CCC(c5ccccc5)C4)ncn3)c(N)nn2c1 (stereo not drawn) [Compound V-303],0.5 to 5 µM,0.5 to 5 µM,0.5 to 5 µM
CC(=O)c1ccccc1-c1cnc2c(-c3ccccn3)c(N)nn2c1 [Compound V-6],0.5 to 5 µM,0.5 to 5 µM,0.5 to 5 µM
Cc1cnc2c(-c3cc(N4CCC(S(C)(=O)=O)C4)ncn3)c(N)nn2c1 (stereo not drawn) [Compound V-308],< 0.5 µM,< 0.5 µM,< 0.5 µM
Nc1nn2cc(-c3cccnc3N3CCCC(CO)C3)cnc2c1-c1ccccn1 (stereo not drawn) [Compound V-270],0.5 to 5 µM,> 5 µM,0.5 to 5 µM
CC(C)(C)OCc1ccccc1-c1cnc2c(-c3ccccn3)c(N)nn2c1 [Compound V-49],0.5 to 5 µM,> 5 µM,0.5 to 5 µM
CCN(CC)CCCc1cnc2c(-c3ccccn3)c(N)nn2c1 [Compound V-319],0.5 to 5 µM,> 5 µM,< 0.5 µM
CC[C@H](CO)Nc1cc(-c2c(N)nn3cc(C)cnc23)ncn1 [Compound V-287],0.5 to 5 µM,0.5 to 5 µM,< 0.5 µM
Nc1nn2cc(-c3ccnc(N4CCN(Cc5ccccc5)CC4)c3)cnc2c1-c1ccccn1 [Compound V-247],0.5 to 5 µM,> 5 µM,< 0.5 µM
CN(C)c1ccc(CNC(=O)c2c(N)nn3cc(-c4ccncn4)cnc23)cc1 [Compound V-43],0.5 to 5 µM,> 5 µM,0.5 to 5 µM
Nc1nn2cc(CCCN3CCSCC3)cnc2c1-c1ccccn1 [Compound V-328],0.5 to 5 µM,> 5 µM,0.5 to 5 µM
CCCN(CCCN)C(=O)c1cccc(-c2cnc3c(-c4ccccn4)c(N)nn3c2)n1 [Compound V-122],< 0.5 µM,0.5 to 5 µM,< 0.5 µM
COCCNc1cc(-c2cnc3c(-c4ccccn4)c(N)nn3c2)ccn1 [Compound V-245],0.5 to 5 µM,> 5 µM,< 0.5 µM
CN1CCCN(c2cc(-c3cnc4c(-c5ccccn5)c(N)nn4c3)ccn2)CC1 [Compound V-254],0.5 to 5 µM,> 5 µM,0.5 to 5 µM
N#CCCN(Cc1ccccc1)C(=O)c1c(N)nn2cc(-c3ccncn3)cnc12 [Compound V-38],0.5 to 5 µM,> 5 µM,0.5 to 5 µM
